# How the values were obtained:
# [1] = tested on: CCRF-CEM; assay: CellTiterGlo cell viability assay, initial screening; format: cell-based
# Experimental: (§1) In vitro viability assays were performed to assess the effects of compounds on cell viability in 7 selected cell lines over 72 hr using the CellTiterGlo (CTG, Promega-G7573) assay. The tests were performed in duplicates with treatment of compounds at 9 points, 3.16 folds titration in 96 well plates over ˜72 hr. The compound starting concentrations were […]. Cell viability assay using CellTiterGlo in 96-well plate were performed. The compound treatment was 72 hrs, under standard growth conditions, and in duplicate. Compounds were dissolved to 40 mM with thawed […]. Compounds were serially diluted at 3.16 fold in thawed DMSO, and warmed to 37° C. before being dissolved in media (2 μl+200 μl). After compounds were dissolved in media (media was also warmed to 37° C.). Media containing compounds were warmed to 37° C. in incubator and then compounds in media were added to cell plates (50 μl+50 μl), in duplicates. The compounds final concentrations were from […] to 19.9 nM. All compound solubilities were checked and recorded again, then the plates were transferred to CO2 tissue culture incubator immediately and incubated for 3 days. DMSO final concentration is 0.5%.
# [2] = tested on: HL-60; assay: as above; format: cell-based
# Experimental: as §1
# [3] = tested on: HepG2; assay: as above; format: cell-based; settings: HepG2; 72 hr; Table II
# Experimental: as §1
# [4] = tested on: K562; assay: as above; format: cell-based; settings: 72 hr, Table II
# Experimental: as §1
# [5] = tested on: KG-1; assay: as above; format: cell-based
# Experimental: as §1
# [6] = tested on: MCF-7; assay: as above; format: cell-based
# Experimental: as §1
# [7] = tested on: MOLT-4; assay: as above; format: cell-based
# Experimental: as §1
# [8] = tested on: CEM (TdT+ve); assay: ATP ViaLight plus cell viability assay; format: cell-based, Human; settings: for (FD) fold difference compared to control: CEM
# Experimental: (§2) Certain compounds of the invention were subjected to further studies to test the cytotoxic activity of certain compounds of the invention and also to measure their activity against 4 haematological cancer cell lines • TdT positive CEM (Human ALL) • TdT negative K562 (Human CML) • TdT negative H1-60 (Human ANLL) • RL (CRL-2261) non-HD lymphoma • The concentrations of the active metabolite dATP (Cordycepin triphosphate) in these cell lines was also measured. • The cytotoxic activity and the intracellular 3′-dATP concentrations were also studied in the presence of hENT1, Adenosine Kinase (AK) and Adenosine Deaminase pharmacological inhibitors in CEM and RL cancer cell lines. Said inhibitors that mimic known cancer resistance mechanisms. Methods Cell Culture
# (§3) HL-60, K562, CCRF-CEM and RL cell lines were cultured in RPMI-1640 medium (Sigma Aldrich, UK), which were supplemented with 10% Fetal Bovine Serum (FBS) (PAA Laboratories), 1% amphotericin B (5.5 ml) and 1% penicillin/streptomycin (5.5 ml) (PAA Laboratories) and grown in flasks at 37° C. incubator with 5% CO2.
# (§4) The amount of ATP was used as a measurement of cell number and cell viability. ATP ViaLight™ plus assay kit (Lonza, USA: Product No. LT07-121) to detect ATP in cells treated in luminescence compatible 96 well plates (initial concentration of cells was 1×10^4 cells/well) with cordycepin and ProTides at concentrations of: 0, 0.1, 0.5, 1, 5 and 10 μM, followed by incubation for 72 hours at 37° C. incubator with 5% CO2. For inhibitor studies, 10 μM of NBTI or 1 μM EHNA or A-134974 was added and left for 5 minutes before adding the drugs (see section 5 for inhibitor details).
# (§5) After incubation, 50 μl of cell lysis reagent was added to the 96 well plates to release the intracellular ATP, followed by 100 μl of ATP monitoring reagent (AMR). The luminescent values of each well were determined using FLUOstar OPTIMA microplate reader (BMG Labtech) which convert ATP into light by using luciferase enzyme. Therefore, the amount of luminescence produced was directly proportional to the amount of ATP.
# (§6) Cell lines were treated in the same way as described above but before treatment with drugs, a number of inhibitors were added: • 1) Nitrobenzylthioinosine (NBTI) (Sigma-Aldrich, St. Louis, MO, product # N2255) blocks nucleoside transporters • 2) EHNA hydrochloride (Sigma-Aldrich, St. Louis, MO, product # E114) blocks adenosine deaminase • 3) Adenosine kinase inhibitor A-134974 dihydrochloride hydrate (Sigma-Aldrich, St. Louis, MO, product # A2846): blocks adenosine kinase
# (§7) The dose-response curves of cytotoxicity of the drugs was determined using non-linear regression analysis of percentage cell viability versus concentration and EC50 values were obtained. The intracellular assay was conducted in five replicates for each condition. Intracellular assay was determined using paired t test (two-tailed) analysis of 3′ ATP/ATP concentration and p-values were obtained. For all the analysis, Prism Software program (GraphPad Software) was used and Microsoft Powerpoint® 2013 was used to plot the results.
# [9] = tested on: HL-60; assay: ATP ViaLight plus cell viability assay; format: cell-based, Human; settings: HL-60
# Experimental: as §2, §3, §4, §5, §7
# [10] = tested on: K562; assay: ATP ViaLight plus cell viability assay; format: cell-based, Human; settings: K562
# Experimental: as §2, §3, §4, §5, §7
# [11] = tested on: RL (CRL-2261); assay: ATP ViaLight plus cell viability assay; format: cell-based
# Experimental: as §2, §3, §4, §5, §6, §7
# [12] = tested on: BxPC-3-Luc; assay: Solid tumour and haematological malignancy assay (CellTiterGlo); format: cell-based; settings: 72 hr, Table VII
# Experimental: (§8) In vitro viability assay were performed to assess the effects of compounds on cell viability in selected cell lines over 72 hr using the CellTiterGlo (CTG, Promega-G7573) assay. The tests were performed in duplicates with treatment of compounds at 9 points, 3.16 folds titration in 96 well plates over ˜72 hr. The compound starting concentrations were 198 mM. Cell viability assay using CellTiterGlo in 96-well plate were performed. Compound treatment 72 hrs, standard growth conditions, duplicates. Compounds were dissolved to 40 mM with thawed […]. Compounds were serially diluted at 3.16 fold in thawed DMSO, and warmed to 37° C. before being dissolved in media (2 μl+200 μl). After compounds were dissolved in media, media containing compounds were warmed to 37° C. in incubator and then compounds in media were added to cell plates (50 μl+50 μl) in duplicates. The compounds' final concentrations were from 198M to 19.9 nM. All compound solubilities were checked and recorded again, then the plates were transferred to CO2 tissue culture incubator immediately and incubated for 3 days. DMSO final concentration is 0.5%.
# [13] = tested on: BxPC-3; assay: as above; format: cell-based; settings: 72 hr
# Experimental: as §8
# [14] = tested on: Jurkat; assay: as above; format: cell-based; settings: 72 hr
# Experimental: as §8
# [15] = tested on: SW620; assay: as above; format: cell-based; settings: SW620; 72 hr
# Experimental: as §8
# [16] = tested on: Z138; assay: as above; format: cell-based; settings: 72 hr
# Experimental: as §8
# [17] = tested on: CCRFCEM; assay: as above; format: cell-based; settings: for Emax: Homo sapiens, CCRF-CEM, 72 h, read-out: MI %
# Experimental: as §8, with “The tests were performed in duplicates with treatment of compounds at 9 points, 3.16 folds titration in 96 well plates over ˜72 hr. The compound starting concentrations were 198 mM.” left out, “Compounds were serially diluted at 3.16 fold in thawed DMSO, and warmed to 37° C. before being dissolved in media (2 μl+200 μl).” left out, “The compounds' final concentrations were from 198M to 19.9 nM.” left out
# [18] = tested on: HT29; assay: as above; format: cell-based
# Experimental: as §8, with “The tests were performed in duplicates with treatment of compounds at 9 points, 3.16 folds titration in 96 well plates over ˜72 hr. The compound starting concentrations were 198 mM.” left out, “Compounds were serially diluted at 3.16 fold in thawed DMSO, and warmed to 37° C. before being dissolved in media (2 μl+200 μl).” left out, “The compounds' final concentrations were from 198M to 19.9 nM.” left out
# [19] = tested on: KG-1; assay: as above; format: cell-based
# Experimental: as §8, with “The tests were performed in duplicates with treatment of compounds at 9 points, 3.16 folds titration in 96 well plates over ˜72 hr. The compound starting concentrations were 198 mM.” left out, “Compounds were serially diluted at 3.16 fold in thawed DMSO, and warmed to 37° C. before being dissolved in media (2 μl+200 μl).” left out, “The compounds' final concentrations were from 198M to 19.9 nM.” left out
# [20] = tested on: MOLT-4; assay: as above; format: cell-based; settings: Homo sapiens, MOLT-4, 72 h, read-out: MI %
# Experimental: as §8
# [21] = tested on: NCI-H929; assay: as above; format: cell-based; settings: Homo sapiens, NCI-H929, 72 h, read-out: MI %
# Experimental: as §8
# [22] = tested on: RL; assay: as above; format: cell-based; settings: Homo sapiens, 72 h, read-out: MI %
# Experimental: as §8
# [23] = tested on: MCF7; assay: as above; format: cell-based; settings: Homo sapiens, MCF7, 72 h, read-out: MI %
# Experimental: as §8, with “The tests were performed in duplicates with treatment of compounds at 9 points, 3.16 folds titration in 96 well plates over ˜72 hr. The compound starting concentrations were 198 mM.” left out, “Compounds were serially diluted at 3.16 fold in thawed DMSO, and warmed to 37° C. before being dissolved in media (2 μl+200 μl).” left out, “The compounds' final concentrations were from 198M to 19.9 nM.” left out
compound,measurement,setting,value
"CCCCCOC(=O)[C@H](CC(C)C)NP(=O)(OC[C@@H]1C[C@@H](O)[C@H](n2cnc3c(N)ncnc32)O1)Oc1cccc2ccccc12 (mixture of isomers) [D, (2S)-pentyl 2-(((((2S,4R,5R)-5-(6-amino-9H-purin-9-yl)-4-hydroxytetrahydrofuran-2-yl)methoxy)(naphthalen-1-yloxy)phosphoryl)amino)-4-methylpentanoate]",M.I. %: maximum percentage inhibition of cell viability,"[1]; CCRF-CEM, 72 hr, Table II",100%
same,M.I. %: maximum percentage inhibition of cell viability,"[2]; HL-60, 72 hr, Table II",100%
same,M.I. %: maximum percentage inhibition of cell viability,[3],99%
same,M.I. %: maximum percentage inhibition of cell viability,[4],99%
same,M.I. %: maximum percentage inhibition of cell viability,"[5]; KG-1, 72 hr, Table II",100%
same,M.I. %: maximum percentage inhibition of cell viability,"[6]; MCF-7, 72 hr, Table II",100%
same,M.I. %: maximum percentage inhibition of cell viability,"[7]; MOLT-4, 72 hr, Table II",100%
same,(FD) fold difference compared to Cordycepin = Cordycepin IC50/ProTide IC50,[8]; CEM (TdT+ve),3
same,(FD) fold difference compared to Cordycepin = Cordycepin IC50/ProTide IC50,[9],2
same,(FD) fold difference compared to Cordycepin = Cordycepin IC50/ProTide IC50,[10],3
same,(FD) fold difference compared to Cordycepin = Cordycepin IC50/ProTide IC50,[11],5
"CC(NP(=O)(OC[C@@H]1C[C@@H](O)[C@H](n2cnc3c(N)nc(Cl)nc32)O1)Oc1cccc2ccccc12)C(=O)OCc1ccccc1 (stereo in doubt) [S, (2R)-benzyl 2-((((2S,4R,5R)-5-(6-amino-2-chloro-9H-purin-9-yl)-4-hydroxytetrahydrofuran-2-yl)methoxy)(naphthalen-1-yloxy)phosphorylamino)propanoate]",MI %,[12],82.6%
"Nc1nc(Cl)nc2c1ncn2[C@@H]1O[C@H](CO)C[C@H]1O [2-Cl-cordycepin, 3′-deoxy-2-chloroadenosine, reference compound]",MI %,[12],−1.3%
"Nc1ncnc2c1ncn2[C@@H]1O[C@H](COP(=O)(NCC(=O)OCc2ccccc2)Oc2ccccc2)C[C@H]1O (stereo partly drawn) [C, Benzyl 2-(((((2S,4R,5R)-5-(6-amino-9H-purin-9-yl)-4-hydroxytetrahydrofuran-2-yl)methoxy)(phenoxy)phosphoryl)amino)acetate]",M.I. %: maximum percentage inhibition of cell viability,"[1]; CCRF-CEM, 72 hr, Table II",94%
same,M.I. %: maximum percentage inhibition of cell viability,"[2]; HL-60, 72 hr, Table II",82%
same,M.I. %: maximum percentage inhibition of cell viability,[3],59%
same,M.I. %: maximum percentage inhibition of cell viability,[4],92%
same,M.I. %: maximum percentage inhibition of cell viability,"[5]; KG-1, 72 hr, Table II",65%
same,M.I. %: maximum percentage inhibition of cell viability,"[6]; MCF-7, 72 hr, Table II",87%
same,M.I. %: maximum percentage inhibition of cell viability,"[7]; MOLT-4, 72 hr, Table II",93%
same,MI %,[13],99%
same,MI %,[14],100%
same,MI %,[15],100%
same,MI %,[16],100%
same,MI %,"[17]; CCRFCEM, 72 hr",100%
same,MI %,"[18]; HT29, 72 hr",99%
same,MI %,"[19]; KG-1, 72 hr",102%
CCCCCOC(=O)[C@H](CC(C)C)NP(=O)(OC[C@@H]1C[C@H](O)[C@H](n2cnc3c(N)nc(OC)nc32)O1)Oc1cccc2ccccc12 (some centres unmarked) [Compound M],Emax,[17],100%
"Nc1ncnc2c1ncn2[C@@H]1O[C@H](CO)C[C@H]1O [Cordycepin, 3′-deoxyadenosine, reference compound]",M.I. %: maximum percentage inhibition of cell viability,"[1]; human, 72 h",12%
same,M.I. %: maximum percentage inhibition of cell viability,"[2]; human, 72 h",88%
same,M.I. %: maximum percentage inhibition of cell viability,[3],66%
same,M.I. %: maximum percentage inhibition of cell viability,[4],88%
same,M.I. %: maximum percentage inhibition of cell viability,"[5]; human, 72 h",78%
same,M.I. %: maximum percentage inhibition of cell viability,"[6]; human, 72 h",78%
same,M.I. %: maximum percentage inhibition of cell viability,"[7]; human, 72 h",52%
same,MI %,[13],22%
same,MI %,[14],20%
same,(FD) fold difference compared to control,[8]; AK,3
same,(FD) fold difference compared to control,[8]; EHNA,−16
same,(FD) fold difference compared to control,[8]; NBTI,5
same,(FD) fold difference compared to control,[11]; AK,4
same,(FD) fold difference compared to control,[11]; EHNA,2
same,(FD) fold difference compared to control,[11]; NBTI,2
"COc1nc(N)c2ncn([C@@H]3O[C@H](COP(=O)(N[C@@H](C)C(=O)OCc4ccccc4)Oc4cccc5ccccc45)C[C@H]3O)c2n1 (stereo partly drawn) [K, (2S)-benzyl 2-((((2S,4R,5R)-5-(6-amino-2-methoxy-9H-purin-9-yl)-4-hydroxytetrahydrofuran-2-yl)methoxy)(naphthalen-1-yloxy)phosphorylamino)propanoate]",Emax,[20],104%
same,Emax,[21],102%
same,Emax,[22],104%
same,Emax,[17],102%
same,Emax,"[18]; Homo sapiens, HT-29, 72 h, read-out: MI %",98%
same,Emax,"[19]; Homo sapiens, KG-1, 72 h, read-out: MI %",99%
same,Emax,[23],99%
